Reference: EP2405274A1, “Monitoring anticoagulant therapy and identifying reversible direct factor Xa inhibitors” (Good biomarker Sciences B.V., priority 2010, dated 2012)

Assays:
Type in all cases: biochemical
[1] = test system: pooled human citrated plasma; assay: Prothrombin time (PT) clotting assay with Thromboplastin C plus
Procedure: (§1) The experiments here below were performed with pooled human citrated plasma which was made from a minimum of individual contributions of 6 apparently healthy volunteers. Blood was collected ( 9 vol blood/ 1 volume 0.11 M citrate) in tubes and mixed directly after withdrawal. The Blood was cooled by submersion in ice water and centrifuged in a cooled, swing-out centrifuge for at least 20 minutes at 2000 x g. Subsequently, plasma was carefully separated from the cells and collected in an intermediate , cooled plastic tube. The collected plasma was mixed and centrifuged similarly after which platelet-poor-plasma was collected, aliquoted and after snap-freezing stored at -60 °C or below.
(§2) Different PT assays were used using PT assays commercially available as Simplastin excel S (BioMerieux), Innovin (Dade Behring), Neoplastin CI plus (Stago), Recombiplastin (Instrumentation Laboratories) and Thromborel S (Dade Behring). In each case The reagent consisted of Tissue factor, lipid and CaCl2. Tests were performed in a clotting analyser (AMAX Destiny, Kordia Lifesciences, Leiden, NL). In each case a cuvette was filled with 100 µl plasma and incubated for 1 minute at 37 °C. Pre-warmed PT reagent was added (200 µl) and recording of clotting was started. The AMAX recorded blood clotting by reduction in speed of a turning rod (mechanical detection).
(§3) For spiking experiments with rivaroxaban (Xarelto, from Bayer), the plasma sample was spiked with rivaroxaban at different concentrations between […], and the clotting times were again recorded using the different PT reagents. The results are plotted in Figure 1.
(§4) Example 1a was repeated with PT clotting assays Thromboplastin S (Biopool, through Trinity),PT fibrinogen (Instrumentation Laboratories), PT fibrinogen recombinant (Instrumentation Laboratories), Thromboplastin C plus ( Siemens) and Simplastin Excel (Biomerieux).

[2] = test system: pooled human citrated plasma; assay: Prothrombin time (PT) clotting assay with Neoplastin CI plus
Procedure: as §1, §2, §3

[3] = test system: pooled human citrated plasma; assay: Prothrombin time (PT) clotting assay with PT fibrinogen
Procedure: as §1, §2, §3, §4

[4] = test system: pooled human citrated plasma; assay: Prothrombin time (PT) clotting assay with Innovin
Procedure: as §1, §2, §3

[5] = test system: pooled human citrated plasma; assay: Prothrombin time (PT) clotting assay with Simplastin Excel
Procedure: as §1, §2, §3, §4

[6] = test system: pooled human citrated plasma; assay: Prothrombin time (PT) clotting assay with Recombiplastin
Procedure: as §1, §2, §3

[7] = test system: pooled human citrated plasma; assay: Prothrombin time (PT) clotting assay with Simplastin excel S; set-up: Rivaroxaban-prolonged PT / Ratio range: dose or concentration left out as unconfirmed
Procedure: as §1, §2, §3

[8] = test system: pooled human citrated plasma; assay: Prothrombin time (PT) clotting assay with PT fibrinogen recombinant
Procedure: as §1, §2, §3, §4

[9] = test system: pooled human citrated plasma; assay: Prothrombin time (PT) clotting assay with Thromborel S
Procedure: as §1, §2, §3

[10] = test system: pooled human citrated plasma; assay: PT clotting assay with Simplastin Excel S in presence of RVV-V; conditions: RVV-V added prior to the clotting experiment, Figure 2
Procedure: as §1
(§5) Different PT assays were used using PT assays commercially available as Simplastin excel S (BioMerieux), Innovin (Dade Behring), Neoplastin CI plus (Stago), Recombiplastin (Instrumentation Laboratories) and Thromborel S (Dade Behring). In each case The reagent consisted of Tissue factor, lipid and CaCl2. […] The AMAX recorded blood clotting by reduction in speed of a turning rod (mechanical detection). […]
(§6) For spiking experiments with rivaroxaban (Xarelto, from Bayer), the plasma sample was spiked with rivaroxaban at different concentrations between […], and the clotting times were again recorded using the different PT reagents. […]

[11] = test system: pooled human citrated plasma; assay: Prothrombin time (PT) clotting assay with Thromboplastin S
Procedure: as §1
Different PT assays were used using PT assays commercially available as Simplastin excel S (BioMerieux), Innovin (Dade Behring), Neoplastin CI plus (Stago), Recombiplastin (Instrumentation Laboratories) and Thromborel S (Dade Behring). In each case The reagent consisted of Tissue factor, lipid and CaCl2. […] The AMAX recorded blood clotting by reduction in speed of a turning rod (mechanical detection).
as §6

[12] = test system: pooled human citrated plasma; assay: PT clotting assay with Innovin in presence of RVV-V; conditions: Figure 2
Procedure: as §1, §5, §6

[13] = 200 ng/ml rivaroxaban spiked in plasma
[14] = 600 ng/ml rivaroxaban spiked in plasma
[15] = PT ratio compared to reference value ("0"), up to 600 ng/ml rivaroxaban

Structure (SMILES): O=C(NC[C@H]1CN(c2ccc(N3CCOCC3=O)cc2)C(=O)O1)c1ccc(Cl)s1 [rivaroxaban, Rivaroxaban]
- Prothrombin time [1, 13]: 44.3 s
- Prothrombin time [1, 14]: 73.5 s
- Ratio range [1, 15]: 1.0-3.1
- Prothrombin time [2, 13]: 20.0 s
- Prothrombin time [2, 14]: 35.0 s
- Ratio range [2, 15]: 1.0-2.6
- Prothrombin time [3, 13]: 38.5 s
- Prothrombin time [3, 14]: 62.7 s
- Ratio range [3, 15]: 1.0-2.8
- Prothrombin time [4, 13]: 12.0 s
- Prothrombin time [4, 14]: 17.1 s
- Ratio range [4, 15]: 1.0- 1.8
- Change in PT for rivaroxaban ([4]; without RVV-V, Figure 2): no significant change in PT
- Prothrombin time [5, 13]: 40.0 s
- Prothrombin time [5, 14]: 63.1 s
- Ratio range [5, 15]: 1.0-3.1
- Prothrombin time [6, 13]: 16.8 s
- Prothrombin time [6, 14]: 26.2 s
- Ratio range [6, 15]: 1.0-2.5
- Sensitivity of PT assay for rivaroxaban ([7]; Simplastin Excel S and/or Triniclot Excel S, within the therapeutic range (ratio window 2 - 5)): high sensitivity
- Rivaroxaban-prolonged PT ([7]; Simplastin Excel S, without RVV-V, 200 -): 80 s
- Prothrombin time ([7]; Simplastin excel S, 200 µg/ml rivaroxaban spiked in plasma): 41.0 s
- Ratio range ([7]; Simplastin excel S, PT ratio compared to reference value ("0"), up): 1.0-5.0
- Prothrombin time ([7]; Simplastin excel S, spiked in plasma): 80.8 s
- Prothrombin time [8, 13]: 32.9 s
- Prothrombin time [8, 14]: 45.4 s
- Ratio range [8, 15]: 1.0-1.9
- Prothrombin time [9, 13]: 21.1 s
- Prothrombin time [9, 14]: 26.7 s
- Ratio range [9, 15]: 1.0-1.7
- Effect of RVV-V on prolonged PT [10]: completely vanished
- Prothrombin time [11, 14]: 51.6 s
- Ratio range [11, 15]: 1.0-2.4
- Change in PT for rivaroxaban [12]: no significant change in PT
